The values that follow come from patent US9790233B2, “Compositions and methods of modulating 15-PGDH activity” (CASE WESTERN RESERVE UNIVERSITY, priority 2012, dated 2017).

Each structure is given as a SMILES string. Read-outs that look alike come from different tables or passages of the source.

What all share (type): cell-based
Assay [1] concerns 15-PGDH luciferase fusion construct in V9m reporter cell line. The experiment in a line: 15-PGDH-luciferase fusion gene reporter induction, V9m cells.
The test system of assay [2] is 15-PGDH luciferase fusion construct in Vaco503 reporter cell line. In words: 15-PGDH-luciferase fusion gene reporter induction, V503 cells.
Assay [3] relates to 15-PGDH luciferase fusion construct in LS174T reporter cell line. The experiment in a line: 15-PGDH-luciferase fusion gene reporter induction, LS174T cells. The note with it: Homo sapiens.
[4] abbreviates: read-out: V9M-SC3 Reporter activity ([…]) (%), V9m reporter cells, […] compound, % induction of luciferase activity over basal level, read-out: V9M-SC3 Reporter activity (2.5 μM) (%).
Where [5] appears, read: read-out: V9M-SC3 Reporter activity ([…]), %, V9m reporter cells, […] compound, % induction of luciferase activity over basal level, read-out: V9M-SC3 Reporter activity (7.5 μM), %.
Where [6] appears, read: read-out: V503-3H9-7 reporter activity, % ([…]), V503 reporter cells, […] compound, % induction of luciferase activity over basal level, read-out: V503-3H9-7 reporter activity, % (2.5 μM).
Setting [7] is: read-out: V503-3H9-7 reporter activity, % ([…]), V503 reporter cells, […] compound, % induction of luciferase activity over basal level, read-out: V503-3H9-7 reporter activity, % (7.5 μM).
The mark [8] stands for this setting: read-out: Ls174T-SC1 reporter activity, % ([…]), LS174T reporter cells, […] compound, % induction of luciferase activity over basal level, read-out: Ls174T-SC1 reporter activity, % (2.5 μM).
Setting [9] is: read-out: Ls174T-SC1 reporter activity, % ([…]), LS174T reporter cells, […] compound, % induction of luciferase activity over basal level, read-out: Ls174T-SC1 reporter activity, % (7.5 μM).
Setting [10] is: read-out: V9M reporter activity ([…]), […], % induction of luciferase activity over basal level, Table 17, read-out: V9M reporter activity (2.5 μM).
Where [11] appears, read: read-out: V9M reporter activity ([…]), […], % induction over basal level, Table 17, read-out: V9M reporter activity (7.5 μM).
Setting [12] is: read-out: V503 reporter activity ([…]), […], % induction over basal level, Table 17, read-out: V503 reporter activity (2.5 μM).
[13] abbreviates: read-out: V503 reporter activity ([…]), […], % induction over basal level, Table 17, read-out: V503 reporter activity (7.5 μM).
The mark [14] stands for this setting: read-out: LS174T reporter activity ([…]), […], % induction over basal level, Table 17, read-out: LS174T reporter activity (2.5 μM).
Setting [15] is: read-out: lS174T reporter activity ([…]), […], % induction over basal level, Table 17, read-out: lS174T reporter activity (7.5 μM).
Where [16] appears, read: read-out: V9M reporter activity ([…]), […], % increased luciferase activity over basal level, 100 = doubling, read-out: V9M reporter activity (2.5 uM).
Where [17] appears, read: read-out: V9M reporter activity ([…]), […], % increased luciferase activity over basal level, 100 = doubling, read-out: V9M reporter activity (7.5 uM).
The mark [18] stands for this setting: read-out: V503 reporter activity ([…]), […], % increased luciferase activity over basal level, read-out: V503 reporter activity (2.5 uM).
The mark [19] stands for this setting: read-out: V503 reporter activity ([…]), […], % increased luciferase activity over basal level, read-out: V503 reporter activity (7.5 uM).
The mark [20] stands for this setting: read-out: LS174T reporter activity ([…]), […], % increased luciferase activity over basal level, read-out: LS174T reporter activity (2.5 uM).
Setting [21] is: read-out: LS174T reporter activity ([…]), […], % increased luciferase activity over basal level, read-out: LS174T reporter activity (7.5 uM).
Where [22] appears, read: read-out: V9M-SC3 Reporter activity ([…]) (%), […], Table 18, read-out: V9M-SC3 Reporter activity (2.5 μM) (%).
[23] abbreviates: read-out: V503-3H9-7 reporter activity, % ([…]), […], Table 18, read-out: V503-3H9-7 reporter activity, % (2.5 μM).
Where [24] appears, read: read-out: V503-3H9-7 reporter activity, % ([…]), […], Table 18, read-out: V503-3H9-7 reporter activity, % (7.5 μM).
Setting [25] is: read-out: Ls174T-SC1 reporter activity, % ([…]), […], Table 18, read-out: Ls174T-SC1 reporter activity, % (2.5 μM).
Where [26] appears, read: read-out: Ls174T-SC1 reporter activity, % ([…]), […], Table 18, read-out: Ls174T-SC1 reporter activity, % (7.5 μM).

On to `COc1ccc(OC)c(N(CC(=O)Nc2cccnc2)S(=O)(=O)c2ccccc2C#N)c1` [SW202945], for which the activation at […] in assay [1] (setting [4]) turned out to be 28.5%; in assay [1] (setting [5]), 90%; in assay [2] (setting [6]), 34%; in assay [2] (setting [7]), 127%; in assay [3] (setting [8]), 45.7%; in assay [3] (setting [9]), 135%.
For the compound `COc1ccc(OC)c(N(CC(=O)N2CCCC2=O)S(=O)(=O)c2ccccc2)c1` [SW208002], the activation at […] is -12.4% in assay [1] (setting [4]); -21.8% in assay [1] (setting [5]); -15.7% in assay [2] (setting [6]); -16.5% in assay [2] (setting [7]); -14.5% in assay [3] (setting [8]); -14.6% in assay [3] (setting [9]).
Consider `COc1ccc(OC)c(N(CC(=O)Nc2ccc(I)cc2C)S(=O)(=O)c2ccccc2)c1` [compound 1003012], for which the activation at […] in assay [1] (setting [10]) was -10.4%; in assay [1] (setting [11]), -0.9%; in assay [2] (setting [12]), 34.4%; in assay [2] (setting [13]), 58.5%; in assay [3] (setting [14]) it was 5.54%; in assay [3] (setting [15]), 19.8%.
Consider `COc1ccc(OC)c(N(CC(=O)Nc2cccnc2C)S(=O)(=O)c2ccccc2)c1` [SW202968], for which the activation at […] is -21.1% in assay [1] (setting [4]); -7.36% in assay [1] (setting [5]); 35.2% in assay [2] (setting [6]); 53.9% in assay [2] (setting [7]); -17.5% in assay [3] (setting [8]); 6.08% in assay [3] (setting [9]).
Regarding `COc1ccc(OC)c(N(CC(=O)Nc2cccc(Cl)c2)S(=O)(=O)c2ccc(OC)c(OC)c2)c1` [compound 785254], the activation at […] in assay [1] (setting [10]) was -16.1%; in assay [1] (setting [11]) it was -8.48%; in assay [2] (setting [12]) it was 16.1%; in assay [2] (setting [13]) it was 28.3%; in assay [3] (setting [14]), 2.93%; in assay [3] (setting [15]) it was 4.29%.
Turning to `COc1ccc(OC)c(N(CC(=O)Nc2cccnc2)S(=O)(=O)c2ccccc2F)c1` [SW202947], the activation at […] in assay [1] (setting [4]) worked out at 21.9%; in assay [1] (setting [5]) it was 2.57%; in assay [2] (setting [6]), 143%; in assay [2] (setting [7]), 97.8%; in assay [3] (setting [8]), 52%; in assay [3] (setting [9]), 21.2%.
As to `COc1ccc(OC)c(N(CC(=O)Nc2ccccc2)S(=O)(=O)c2ccccc2)c1` [SW203687], the activation at […] in assay [1] (setting [4]) is 28.2%; in assay [1] (setting [5]), 47.5%; in assay [2] (setting [6]) it was 45.7%; in assay [2] (setting [7]) it was -41.6%; in assay [3] (setting [8]), 1.75%; in assay [3] (setting [9]), 56%.
On to `CCCCCC[S+]([O-])c1sc2nc(-c3cccs3)cc(-c3ccccc3)c2c1N` (stereo not drawn) [SW208081, 2-(hexylsulfinyl)-4-phenyl-6-(thiophen-2-yl)thieno[2,3-b]pyridin-3-amine], for which the activation at […] in assay [1] (setting [16]) was determined as 37.8%; in assay [1] (setting [17]) it was 63.6%; in assay [2] (setting [18]), 90.5%; in assay [2] (setting [19]), 105%; in assay [3] (setting [20]) it was 64.5%; in assay [3] (setting [21]), 95.1%.
Turning to `COc1ccc(OC)c(N(CC(=O)Nc2ccccc2C(N)=O)S(=O)(=O)c2ccccc2)c1` [530107-57-4], the activation at […] in assay [1] (setting [22]) stood at 59.5%; in assay [2] (setting [23]), 52.6%; in assay [2] (setting [24]), 84.4%; in assay [3] (setting [25]), 5.45%; in assay [3] (setting [26]) it was 8.27%.
Consider `CNC(=O)CN(c1cc(OC)ccc1OC)S(=O)(=O)c1ccccc1` [SW203682], for which the activation at […] in assay [1] (setting [4]) is 15.3%; in assay [1] (setting [5]), 22.4%; in assay [2] (setting [6]) it was -32.2%; in assay [2] (setting [7]) it was 79.2%; in assay [3] (setting [8]) it was 187%; in assay [3] (setting [9]) it was 13.8%.
On to `COc1ccc(OC)c(N(CC(=O)Nc2ccc(F)cc2)S(=O)(=O)c2ccccc2)c1` [426231-26-7], for which the activation at […] came to 10% in assay [1] (setting [22]); 64% in assay [2] (setting [23]); 113% in assay [2] (setting [24]); 16.2% in assay [3] (setting [25]); 22.1% in assay [3] (setting [26]).
As for `COc1ccc(N(CC(=O)Nc2ccc(C(=O)O)cc2)S(=O)(=O)c2ccccc2)cc1` [compound 742790], the activation at […] in assay [1] (setting [10]) stood at 13.8%; in assay [1] (setting [11]), 23.1%; in assay [2] (setting [12]) it was 5.94%; in assay [2] (setting [13]), 34.4%; in assay [3] (setting [14]) it was 12.8%; in assay [3] (setting [15]), 17.3%.
Turning to `CCc1ccccc1N(CC(=O)Nc1cccnc1)S(=O)(=O)c1ccccc1` [528580−69−0], the activation at […] in assay [1] (setting [22]) is 4.71%; in assay [2] (setting [23]) it was 66%; in assay [2] (setting [24]), 110%; in assay [3] (setting [25]) it was 11.5%; in assay [3] (setting [26]), -4.81%.
In the case of `COc1ccc(S(=O)(=O)N(CC(=O)Nc2ccccc2)c2ccccc2)cc1` [compound 474738], the activation at […] in assay [1] (setting [10]) is -7.27%; in assay [1] (setting [11]), 3.48%; in assay [2] (setting [12]), 17%; in assay [2] (setting [13]), 24.6%; in assay [3] (setting [14]), -0.36%; in assay [3] (setting [15]) it was 3.5%.
In the case of `COc1ccc(N(CC(=O)Nc2cccc(Cl)c2)S(=O)(=O)c2ccc(OC)c(OC)c2)cc1` [compound 408961], the activation at […] in assay [1] (setting [10]) is -12.4%; in assay [1] (setting [11]) it was 0.56%; in assay [2] (setting [12]), 11.7%; in assay [2] (setting [13]), 17.6%; in assay [3] (setting [14]), 2.46%; in assay [3] (setting [15]), -4.51%.
As for `COc1ccc(OC)c(NC(=O)CN(c2ccc([N+](=O)[O-])cc2)S(=O)(=O)c2ccccc2)c1` [compound 414195], the activation at […] in assay [1] (setting [10]) is -13.9%; in assay [1] (setting [11]), -16.8%; in assay [2] (setting [12]), 13.1%; in assay [2] (setting [13]), 19.5%; in assay [3] (setting [14]) it was -1.15%; in assay [3] (setting [15]), 2.34%.
In the case of `COc1ccc(OC)c(N(CC(=O)Nc2ccccc2C(=O)NC(C)C)S(=O)(=O)c2ccc(OC)c(OC)c2)c1` [compound 1003378], the activation at […] in assay [1] (setting [10]) is -4.42%; in assay [1] (setting [11]), -3.27%; in assay [2] (setting [12]), 7.23%; in assay [2] (setting [13]) it was 16.7%; in assay [3] (setting [14]) it was 7.3%; in assay [3] (setting [15]) it was 1.27%.
Consider `COc1ccc(OC)c(N(CC(=O)Nc2cccc(C)c2)S(=O)(=O)c2ccccc2)c1` [SW202969], for which the activation at […] in assay [1] (setting [4]) is -21%; in assay [1] (setting [5]), -14.3%; in assay [2] (setting [6]) it was 62.4%; in assay [2] (setting [7]), 126%; in assay [3] (setting [8]), -15.9%; in assay [3] (setting [9]), 17.9%.
Consider `COc1ccc(OC)c(N(CC(=O)Nc2ccncc2F)S(=O)(=O)c2ccccc2)c1` [SW208004], for which the activation at […] in assay [1] (setting [4]) is 43.7%; in assay [1] (setting [5]) it was 76.1%; in assay [2] (setting [6]), 147%; in assay [2] (setting [7]), 177%; in assay [3] (setting [8]), 62.2%; in assay [3] (setting [9]) it was 118%.
For `CCOC(=O)c1sc2nc(-c3ccccc3)cc(-c3ccccc3)c2c1N` [compound 405320], the activation at […] in assay [1] (setting [16]) is 8.77%; in assay [1] (setting [17]) it was -15.4%; in assay [2] (setting [18]), -7.73%; in assay [2] (setting [19]) it was -33.7%; in assay [3] (setting [20]) it was 9.95%; in assay [3] (setting [21]), -2.57%.
